Earlier results in US20220008839A1, “SEMI-AQUEOUS METHOD FOR EXTRACTING A SUBSTANCE” (Clean Imagineering LLC, priority 2020, published 2022).

Row | Compound | solubility in ethanol (an alcohol such as ethanol) | solubility in water | solubility in ethyl acetate (ethyl acetate) | water solubility (at 20° C.)
1 | C=C(C)[C@@H]1CC[C@]2(CO)CC[C@]3(C)[C@H](CC[C@@H]4[C@@]5(C)CC[C@H](O)C(C)(C)[C@@H]5CC[C@]43C)[C@@H]12 [Betulin] | highly soluble | insoluble in water |  | 
2 | CC(C)=CCC/C(C)=C/C=C/C(C)=C/C=C/C(C)=C/C=C/C=C(C)/C=C/C=C(C)/C=C/C=C(\C)CCC=C(C)C [Lycopene] |  | insoluble in water | freely soluble | 
3 | CCOC(C)=O [ethyl acetate] |  |  |  | 86 mg/mL
